Patent US20260092071A1, “COMPOUNDS AND COMPOSITIONS AS SMARCA2/4 DEGRADERS AND USES THEREOF” (REGENTS OF THE UNIVERSITY OF MICHIGAN, priority 2022, published 2026)
Where two headings read alike, the source gives them in different places.

Tests used:
[1] = biological target: SMARCA2 (Homo sapiens, UniProt P51531); assay: HiBiT assay for protein degradation, Hela SMARCA2-HiBiT cells (A series); type: cell-based; design: Hela cells were genetically modified via CRISPR/Cas9 to fuse HiBiT to the carboxy terminus of SMARCA2; host or cells: HeLa (CRISPR/Cas9 HiBiT knock-in); settings: for DC50: read-out: SMARC A2 Hela HiBit DC50; for Dmax: read-out: SMARC A2 Hela HiBit Dmax (%)
Outline: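 HeLa cells engineered by CRISPR/Cas9 to carry a HiBiT tag fused to the C-terminus of SMARCA2 (Promega CS302365) were grown in DMEM supplemented with FBS and penicillin-streptomycin. After treatment, remaining SMARCA2 protein was quantified with the Nano-Glo® HiBiT Lytic Detection Assay (Promega N3050), and curves were fitted in GraphPad Prism.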

[2] = biological target: SMARCA4 (Homo sapiens, UniProt P51532); assay: HiBiT assay for protein degradation, Hela SMARCA4-HiBiT cells (A series); type: cell-based; design: fuse HiBiT to the carboxy terminus of SMARCA2 (Promega CS302365) or SMARCA4 (Promega CS3023225); host or cells: HeLa (CRISPR/Cas9 HiBiT knock-in); settings: for DC50: read-out: SMARC A4 Hela HiBit DC50
Outline: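 HeLa cells engineered by CRISPR/Cas9 to carry a HiBiT tag fused to the C-terminus of SMARCA4 (Promega CS3023225) were grown in DMEM supplemented with FBS and penicillin-streptomycin. After compound exposure, remaining SMARCA4 protein was quantified using the Nano-Glo® HiBiT Lytic Detection Assay (Promega N3050), and curves were fitted in GraphPad Prism.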

[3] = Hela SMARCA2-HiBiT cells, 24 hours treatment
[4] = Hela SMARCA4-HiBiT cells, 24 hours treatment
[5] = Hela SMARCA4-HiBiT cells, 24 hours treatment, read-out: SMARC A4 Hela HiBit Dmax

Chain of SMARCA2 (P51531 whole entry, the tested form may be a part): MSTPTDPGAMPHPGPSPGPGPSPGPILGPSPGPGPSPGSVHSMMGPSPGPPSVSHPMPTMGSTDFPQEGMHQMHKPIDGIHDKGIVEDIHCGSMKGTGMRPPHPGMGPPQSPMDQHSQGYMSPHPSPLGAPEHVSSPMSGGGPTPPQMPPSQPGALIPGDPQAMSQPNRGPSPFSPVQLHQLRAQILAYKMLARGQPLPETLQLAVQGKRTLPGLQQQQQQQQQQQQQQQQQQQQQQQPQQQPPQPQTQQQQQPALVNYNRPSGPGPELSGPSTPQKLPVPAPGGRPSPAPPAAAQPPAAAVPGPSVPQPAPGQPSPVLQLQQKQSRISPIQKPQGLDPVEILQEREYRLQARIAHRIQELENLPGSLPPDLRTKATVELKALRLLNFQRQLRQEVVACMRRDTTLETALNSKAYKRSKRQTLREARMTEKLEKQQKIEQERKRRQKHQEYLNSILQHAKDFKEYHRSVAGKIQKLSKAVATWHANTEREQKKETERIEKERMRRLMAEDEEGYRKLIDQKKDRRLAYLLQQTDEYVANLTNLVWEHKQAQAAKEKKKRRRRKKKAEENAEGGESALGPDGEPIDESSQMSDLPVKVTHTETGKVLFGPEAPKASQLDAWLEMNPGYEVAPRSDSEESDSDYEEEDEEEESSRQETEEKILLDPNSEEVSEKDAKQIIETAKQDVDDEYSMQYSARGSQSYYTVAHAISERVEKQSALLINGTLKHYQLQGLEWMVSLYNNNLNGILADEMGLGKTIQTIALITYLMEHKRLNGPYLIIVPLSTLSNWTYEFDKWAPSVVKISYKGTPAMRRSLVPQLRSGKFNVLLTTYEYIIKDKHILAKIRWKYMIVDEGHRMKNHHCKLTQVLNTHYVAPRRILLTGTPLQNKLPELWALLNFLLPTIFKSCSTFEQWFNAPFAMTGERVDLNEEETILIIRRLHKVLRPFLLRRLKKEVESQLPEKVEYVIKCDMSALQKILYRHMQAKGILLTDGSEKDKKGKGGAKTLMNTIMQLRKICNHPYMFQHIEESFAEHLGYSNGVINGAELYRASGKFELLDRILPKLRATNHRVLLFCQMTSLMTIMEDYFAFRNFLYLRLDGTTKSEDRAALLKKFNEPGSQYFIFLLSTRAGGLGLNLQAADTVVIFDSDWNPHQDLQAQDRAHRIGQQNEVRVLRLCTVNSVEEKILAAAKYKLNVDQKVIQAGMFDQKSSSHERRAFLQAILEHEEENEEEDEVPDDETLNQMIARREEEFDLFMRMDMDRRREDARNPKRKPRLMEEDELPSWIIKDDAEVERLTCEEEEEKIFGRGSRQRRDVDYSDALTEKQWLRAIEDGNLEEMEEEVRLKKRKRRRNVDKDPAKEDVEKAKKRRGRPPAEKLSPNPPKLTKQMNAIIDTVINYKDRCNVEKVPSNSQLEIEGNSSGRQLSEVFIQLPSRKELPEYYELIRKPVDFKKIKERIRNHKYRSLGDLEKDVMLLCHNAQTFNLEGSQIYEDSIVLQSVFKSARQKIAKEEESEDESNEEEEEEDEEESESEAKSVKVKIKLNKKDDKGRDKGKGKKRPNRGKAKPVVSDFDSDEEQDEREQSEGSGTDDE
Chain of SMARCA4 (P51532 whole entry, the tested form may be a part): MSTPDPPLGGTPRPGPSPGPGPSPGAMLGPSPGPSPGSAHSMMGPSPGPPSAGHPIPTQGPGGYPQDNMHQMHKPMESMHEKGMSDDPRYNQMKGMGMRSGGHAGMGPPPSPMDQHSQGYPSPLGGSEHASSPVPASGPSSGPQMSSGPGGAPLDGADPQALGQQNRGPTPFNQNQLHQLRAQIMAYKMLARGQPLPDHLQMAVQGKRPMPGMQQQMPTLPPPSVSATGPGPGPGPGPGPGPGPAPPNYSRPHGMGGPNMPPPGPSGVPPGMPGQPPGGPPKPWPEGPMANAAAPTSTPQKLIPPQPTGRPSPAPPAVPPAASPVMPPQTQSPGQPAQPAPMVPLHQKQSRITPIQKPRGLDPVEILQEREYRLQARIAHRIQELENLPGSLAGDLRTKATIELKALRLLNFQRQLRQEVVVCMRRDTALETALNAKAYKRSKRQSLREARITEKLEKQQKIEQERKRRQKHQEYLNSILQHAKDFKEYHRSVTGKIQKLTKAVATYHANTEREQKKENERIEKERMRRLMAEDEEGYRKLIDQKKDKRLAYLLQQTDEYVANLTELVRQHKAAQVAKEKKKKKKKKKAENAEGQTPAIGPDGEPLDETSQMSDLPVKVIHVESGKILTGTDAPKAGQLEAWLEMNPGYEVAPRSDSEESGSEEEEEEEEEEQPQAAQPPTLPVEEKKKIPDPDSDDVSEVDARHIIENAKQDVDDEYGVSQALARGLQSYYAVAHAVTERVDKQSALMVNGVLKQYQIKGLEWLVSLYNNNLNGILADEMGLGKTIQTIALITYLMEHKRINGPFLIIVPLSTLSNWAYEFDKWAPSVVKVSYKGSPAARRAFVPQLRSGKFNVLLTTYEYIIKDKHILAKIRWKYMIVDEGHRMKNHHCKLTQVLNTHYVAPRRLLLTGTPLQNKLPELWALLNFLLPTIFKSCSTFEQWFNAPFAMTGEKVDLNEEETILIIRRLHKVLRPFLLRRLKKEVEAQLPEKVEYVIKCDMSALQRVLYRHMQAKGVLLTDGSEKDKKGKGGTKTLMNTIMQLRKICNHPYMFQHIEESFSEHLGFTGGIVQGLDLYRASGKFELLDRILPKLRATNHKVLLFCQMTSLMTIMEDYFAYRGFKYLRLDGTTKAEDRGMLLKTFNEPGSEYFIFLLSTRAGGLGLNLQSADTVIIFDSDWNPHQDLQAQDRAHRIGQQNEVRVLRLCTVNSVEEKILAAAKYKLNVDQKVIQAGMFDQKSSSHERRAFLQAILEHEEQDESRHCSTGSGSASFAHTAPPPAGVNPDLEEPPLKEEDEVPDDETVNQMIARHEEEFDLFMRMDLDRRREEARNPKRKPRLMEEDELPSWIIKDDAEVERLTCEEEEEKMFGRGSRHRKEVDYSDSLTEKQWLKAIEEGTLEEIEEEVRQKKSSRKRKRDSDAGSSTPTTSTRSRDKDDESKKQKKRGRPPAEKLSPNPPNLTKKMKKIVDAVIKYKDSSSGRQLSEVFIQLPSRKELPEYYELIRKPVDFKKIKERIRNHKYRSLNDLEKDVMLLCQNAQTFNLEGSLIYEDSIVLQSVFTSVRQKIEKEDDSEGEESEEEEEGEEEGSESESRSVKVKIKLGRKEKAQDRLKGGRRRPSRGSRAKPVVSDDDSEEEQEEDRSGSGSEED

For `Cc1ncsc1-c1ccc([C@H](C)NC(=O)[C@@H]2C[C@@H](O)CN2C(=O)[C@@H](n2cc(CCCCN3CCC(c4ccc5c(c4)-n4c(nc(=O)c6c(Br)cccc64)C54CCCCC4)CC3)nn2)C(C)(C)C)cc1` [Compound A45, (2S,4R)-1-((S)-2-(4-(4-(4-(4′-bromo-5′-oxo-5′H-spiro[cyclohexane-1,7′-indolo[1,2-a]quinazolin]-10′-yl)piperidin-1-yl)butyl)-1H-1,2,3-triazol-1-yl)-3,3-dimethylbutanoyl)-4-hydroxy-N—((S)-1-(4-(4-methylthiazol-5-yl)phenyl)ethyl)pyrrolidine-2-carboxamide], the “SMARC A2 Hela HiBit Dmax (%)” value [1, 3] was “A (A (>90% degradation))”, the DC50 [1] was under 100 nM and the “SMARC A4 Hela HiBit Dmax(%)” value [2, 4] was “B (B (70-90% degradation))”. For the same molecule, the DC50 [2] was under 100 nM.

With `Cc1ncsc1-c1ccc([C@H](CN2CCN(C)CC2)NC(=O)[C@@H]2C[C@@H](O)CN2C(=O)[C@@H](n2cc([C@H]3CC[C@H](CN4CCC(c5ccc6c(c5)-n5c(nc(=O)c7c(Cl)cccc75)C65CCCCC5)CC4)CC3)nn2)C(C)(C)C)cc1` [Compound A85, (2S,4R)-1-((S)-2-(4-((1r,4S)-4-((4-(4′-chloro-5′-oxo-5′H-spiro[cyclohexane-1,7′-indolo[1,2-a]quinazolin]-10′-yl)piperidin-1-yl)methyl)cyclohexyl)-1H-1,2,3-triazol-1-yl)-3,3-dimethylbutanoyl)-4-hydroxy-N—((R)-2-(4-methylpiperazin-1-yl)-1-(4-(4-methylthiazol-5-yl)phenyl)ethyl)pyrrolidine-2-carboxamide] the DC50 [1, 3] was under 10 nM, the Dmax [1, 3] was over 90% and the DC50 [2, 4] was 10 to 100 nM. The Dmax [2, 5] was 50 to 69%.

With `Cc1nc(C)c(-c2ccc([C@H](CN3CCOCC3)NC(=O)[C@@H]3C[C@@H](O)CN3C(=O)[C@@H](n3cc([C@H]4CC[C@H](CN5CCC(c6ccc7c(c6)-n6c(nc(=O)c8c(Cl)cccc86)C76CCCCC6)CC5)CC4)nn3)C(C)(C)C)cc2)s1` [Compound A161, (2S,4R)-1-((S)-2-(4-((1r,4S)-4-((4-(4′-chloro-5′-oxo-5′H-spiro[cyclohexane-1,7′-indolo[1,2-a]quinazolin]-10′-yl)piperidin-1-yl)methyl)cyclohexyl)-1H-1,2,3-triazol-1-yl)-3,3-dimethylbutanoyl)-N—((R)-1-(4-(2,4-dimethylthiazol-5-yl)phenyl)-2-morpholinoethyl)-4-hydroxypyrrolidine-2-carboxamide] the DC50 [1, 3] was under 10 nM, the Dmax [1, 3] was over 90% and the DC50 [2, 4] was 100 to 1000 nM. The Dmax [2, 5] was 50 to 69%.

With `Cc1ncsc1-c1ccc([C@H](C)NC(=O)[C@@H]2C[C@@H](O)CN2C(=O)[C@H](C2CCN(C(=O)[C@@H]3COCCO3)CC2)n2cc([C@H]3CC[C@H](CN4CCC(c5ccc6c(c5)-n5c(nc(=O)c7c(Cl)cccc75)C65CCCCC5)CC4)CC3)nn2)cc1` [Compound A113, (2S,4R)-1-((S)-2-(1-((S)-1,4-dioxane-2-carbonyl)piperidin-4-yl)-2-(4-((1r,4S)-4-((4-(4′-chloro-5′-oxo-5′H-spiro[cyclohexane-1,7′-indolo[1,2-a]quinazolin]-10′-yl)piperidin-1-yl)methyl)cyclohexyl)-1H-1,2,3-triazol-1-yl)acetyl)-4-hydroxy-N—((S)-1-(4-(4-methylthiazol-5-yl)phenyl)ethyl)pyrrolidine-2-carboxamide] the DC50 [1, 3] was under 10 nM, the Dmax [1, 3] was over 90% and the “SMARC A4 Hela HiBit DC50(nM)” value [2, 4] was “No fit”. It also gave a Dmax [2, 5] of 70 to 90%.

With `CC(C)(C)[C@H](NC(=O)C1(F)CC1)C(=O)N1C[C@H](O)C[C@H]1C(=O)N[C@@H](CCCCCN1CCC(c2ccc3c(c2)-n2c(nc(=O)c4c(Br)cccc42)C32CCCCC2)CC1)c1ccc(Cl)cc1` [Compound A26, (2S,4R)—N—((S)-6-(4-(4′-bromo-5′-oxo-5′H-spiro[cyclohexane-1,7′-indolo[1,2-a]quinazolin]-10′-yl)piperidin-1-yl)-1-(4-chlorophenyl)hexyl)-1-((S)-2-(1-fluorocyclopropane-1-carboxamido)-3,3-dimethylbutanoyl)-4-hydroxypyrrolidine-2-carboxamide] the “SMARC A2 Hela HiBit Dmax (%)” value [1, 3] was “D (D (<50% degradation))”, the DC50 [1] was over 1000 nM and the “SMARC A4 Hela HiBit Dmax(%)” value [2, 4] was “D (D (<50% degradation))”. For the same molecule, the DC50 [2] was over 1000 nM.

For `Cc1ncsc1-c1ccc([C@H](C)NC(=O)[C@@H]2C[C@@H](O)CN2C(=O)[C@H](C2CCOCC2)n2cc([C@H]3CC[C@H](CN4CCC(c5ccc6c(c5)-n5c(nc(=O)c7c(Br)cccc75)C65CCCCC5)CC4)CC3)nn2)cc1` [Compound A121, (2S,4R)-1-((S)-2-(4-((1r,4S)-4-((4-(4′-bromo-5′-oxo-5′H-spiro[cyclohexane-1,7′-indolo[1,2-a]quinazolin]-10′-yl)piperidin-1-yl)methyl)cyclohexyl)-1H-1,2,3-triazol-1-yl)-2-(tetrahydro-2H-pyran-4-yl)acetyl)-4-hydroxy-N—((S)-1-(4-(4-methylthiazol-5-yl)phenyl)ethyl)pyrrolidine-2-carboxamide], the DC50 [1, 3] was under 10 nM, the Dmax [1, 3] was over 90% and the “SMARC A4 Hela HiBit DC50(nM)” value [2, 4] was “No fit”. For the same molecule, the Dmax [2, 5] was 70 to 90%.

`CC1(C)c2ccc(C3CCN(C[C@H]4CC[C@H](c5cn([C@H](C(=O)N6C[C@H](O)C[C@H]6C(=O)N[C@@H](CN6CCOCC6)c6ccc(-c7scnc7C(=O)O)cc6)C6CCOCC6)nn5)CC4)CC3)cc2-n2c1nc(=O)c1c(Cl)cccc12` [Compound A133, 5-(4-((R)-1-((2S,4R)-1-((S)-2-(4-((1r,4S)-4-((4-(4-chloro-7,7-dimethyl-5-oxo-5,7-dihydroindolo[1,2-a]quinazolin-10-yl)piperidin-1-yl)methyl)cyclohexyl)-1H-1,2,3-triazol-1-yl)-2-(tetrahydro-2H-pyran-4-yl)acetyl)-4-hydroxypyrrolidine-2-carboxamido)-2-morpholinoethyl)phenyl)thiazole-4-carboxylic acid] showed a DC50 [1, 3] of 100 to 1000 nM, a Dmax [1, 3] of 70 to 90% and a DC50 [2, 4] of over 1000 nM. The Dmax [2, 5] was under 50%.

Molecule `Cc1ncsc1-c1ccc([C@H](C)NC(=O)[C@@H]2C[C@@H](O)CN2C(=O)[C@@H](n2cc(CCCCCCN3CCC(c4ccc5c(c4)C4(CCCCC4)c4nc(=O)c6c(Br)cccc6n4-5)CC3)nn2)C(C)(C)C)cc1` [Compound A58, (2S,4R)-1-((S)-2-(4-(6-(4-(4′-bromo-5′-oxo-5′H-spiro[cyclohexane-1,7′-indolo[1,2-a]quinazolin]-9′-yl)piperidin-1-yl)hexyl)-1H-1,2,3-triazol-1-yl)-3,3-dimethylbutanoyl)-4-hydroxy-N—((S)-1-(4-(4-methylthiazol-5-yl)phenyl)ethyl)pyrrolidine-2-carboxamide] has a DC50 [1, 3] of under 100 nM, a Dmax [1, 3] of over 90% and a DC50 [2, 4] of under 100 nM. It also gave a Dmax ([2]; Hela SMARCA4-HiBiT cells, 24 hours treatment, read-out: SMARC A4 Hela HiBit Dmax(%)) of over 90%.

For `Cc1ncsc1-c1ccc([C@H](C)NC(=O)[C@@H]2C[C@@H](O)CN2C(=O)[C@@H](n2cc([C@H]3CC[C@H](CN4CCC(c5ccc6c(c5)C5(CCCCC5)c5nc(=O)c7c(Br)cccc7n5-6)CC4)CC3)nn2)C(C)(C)C)cc1` [Compound A60, (2S,4R)-1-((S)-2-(4-((1r,4S)-4-((4-(4′-bromo-5′-oxo-5′H-spiro[cyclohexane-1,7′-indolo[1,2-a]quinazolin]-9′-yl)piperidin-1-yl)methyl)cyclohexyl)-1H-1,2,3-triazol-1-yl)-3,3-dimethylbutanoyl)-4-hydroxy-N—((S)-1-(4-(4-methylthiazol-5-yl)phenyl)ethyl)pyrrolidine-2-carboxamide], the “SMARC A2 Hela HiBit Dmax (%)” value [1] was “A (key: A (>90% degradation); B (70-90% degradation); C (50-69% degradation); D (<50% degradation))”, the DC50 [1] was under 100 nM and the DC50 [2] was under 100 nM.
